Measurements as given in US8586522B2, “Glycol dilevulinates as coupling agents in cleaning formulations” (Dow Global Technologies LLC, priority 2011, dated 2013).

What was measured:
[1] = Water solubility of alkylene glycol dilevulinates; assay type: physicochemical
Source text: Ethylene glycol dilevulinate (EGDL) is 100% water soluble while 1,2-propylene glycol dilevulinate (1,2-PGDL) is 10% soluble by weight in water, and 1,3-propylene glycol dilevulinate (1,3-PGDL) is 25% soluble. All three compounds also dissolve aromatic hydrocarbon compounds such as toluene and xylene, while having limited solubility for simple aliphatic hydrocarbons such as hexane and cyclohexane. Thus, C2-C3 alkylene glycol dilevulinates appear to provide the greatest benefits when used as coupling agents in water-based cleaning formulations.

[2] = Coupling effectiveness / phase stability with d-limonene (Sets I & II); assay type: physicochemical; parameters: key to appearance of sample formulation (coupling of d-limonene): clear: Clear indicates successful coupling of the d-limonene; cloudy indicates poor or no coupling; conditions: for effectiveness at coupling d-limonene: absence of surfactant (0% SLS); for d-limonene level successfully coupled: 1% SLS, solvent at a 20% level, highest d-limonene level tested; for appearance of sample formulation (coupling of d-limonene): 20% coupling agent, Column 6
Method: Two sets of experiments (I & II) were performed to determine the relative coupling effectiveness of fragrance (d-limonene)-containing aqueous formulations having various traditional coupling agents (glycol ethers) and those having various alkylene glycol dilevulinates as the coupling agents, at various temperatures (5° C., room temperature (25° C.) and 40° C.). The details are provided below and the results are shown in diagrams provided in FIGS. 1-16 and explained hereinbelow.
Stock solutions were prepared that contained the main components which didn't change throughout these experiments. Each formulation contained the following standard ingredients: […]
With reference now to the figures, FIGS. 1-8 relate to the Set of Comparative Examples. Each circle represents one sample formulation. More particularly, each of FIGS. 1 & 5 provide a schematic grid diagram of the general layout of sample formulations having various types of glycol ethers as coupling agents and various amounts of d-limonene fragrance, in the presence of 1% SLS surfactant and absence (0% SLS) of surfactant.
FIGS. 2-4 & 6-8 show the results (clear/white or cloudy/black) for the sample formulations identified in the grids of FIGS. 1 and 5 at 5° C., room temperature (25° C.), and 40° C., respectively. Clear indicates successful coupling of the d-limonene and cloudy indicates poor or no coupling.
FIGS. 9-16 relate to the Set II of Working Examples. As with FIGS. 1-8, each circle represents one sample formulation. More particularly, FIG. 9 provides a schematic grid diagram of the general layout of sample formulations having various types of alkylene glycol dilevulinates as coupling agents and various amounts of d-limonene fragrance. For instance, rows A & B of the grid in FIG. 9 were formulations that each had 0.25% by weight d-limonene. Thus, rows A & B of each of FIGS. 10-12 & 14-16 depict formulations that had 0.25% by weight d-limonene.
FIGS. 10-12 & 14-16 show the results (clear/white or cloudy/black) for the sample formulations identified in the grids of FIGS. 9 & 13 at 5° C., room temperature (25° C.), and 40° C., respectively. Clear indicates successful coupling of the d-limonene and cloudy indicates poor or no coupling.

water soluble / soluble by weight in water [1] [%] | d-limonene level successfully coupled [2] [%] | Structure (SMILES) | effectiveness at coupling d-limonene [2] | also measured
10 |  | CC(=O)CCC(=O)OCC(C)OC(=O)CCC(C)=O (centres unmarked) [1,2-PGDL, 1,2-propylene glycol dilevulinate] |  | 
25 |  | CC(=O)CCC(=O)OCCCOC(=O)CCC(C)=O [1,3-PGDL, 1,3-propylene glycol dilevulinate] |  | 
 |  | CC(=O)CCC(=O)OCCCOC(=O)CCC(C)=O [1,3-propylene glycol dilevulinate] | better than 1,2-propylene glycol dilevulinate | 
 | 3 | COC(C)COC(C)CO (centres unmarked) [DOWANOL DPM, dipropylene glycol methyl ether] |  | d-limonene level coupled into an aqueous mixture ([2]; absence of added SLS surfactant): more than 0.25%
100 |  | CC(=O)CCC(=O)OCCOC(=O)CCC(C)=O [EGDL, ethylene glycol dilevulinate] | better than 1,2-propylene glycol dilevulinate | appearance of sample formulation (coupling of d-limonene) ([2]; 5° C. (FIG. 2), 1.5% d-limonene, Row F): clear; appearance of sample formulation (coupling of d-limonene) ([2]; 40° C., 1.5% d-limonene, Row F): cloudy; appearance of sample formulation (coupling of d-limonene) ([2]; room temperature (FIG. 3), 1.5% d-limonene, Row F): clear
 | 3 | CCCCCCOCCOCCO [HxCb, diethylene glycol n-hexyl ether] |  | appearance of sample formulation (coupling of d-limonene) ([2]; 5° C. (FIG. 2), 0.75% d-limonene, Row D): cloudy; appearance of sample formulation (coupling of d-limonene) ([2]; 40° C., 0.75% d-limonene, Row D): cloudy; appearance of sample formulation (coupling of d-limonene) ([2]; room temperature (FIG. 3), 0.75% d-limonene, Row D): clear
